In article PMC13198257, “An aerosolized dual-action autotaxin inhibitor-PPARγ agonist for the treatment of pulmonary fibrosis” (Cell Reports Medicine, 2026):

Tested on: lung gene expression
Experiment: RNA sequencing of lung tissue (BLM/EL244 vs BLM)
Type: in vivo, mouse
Settings: lung tissue, BLM/EL244 vs BLM
Method: RNA quality was assessed using an Agilent TapeStation 4150 with the High Sensitivity […] ScreenTape (Agilent), according to the manufacturer’s protocols. For library preparation, the QuantSeq 3’mRNA-Seq Library Prep Kit (Lexogen) was used according to manufacturer’s instructions. Briefly, 500 ng of RNA from each sample was used for first-strand synthesis, followed by RNA template removal, and second-strand synthesis initiated by random primers. In-line barcodes were introduced at this step, and this was followed by magnetic bead-based purification. The resulting libraries were amplified for 15 cycles and re-purified, with quantity and quality assessed on a Qubit 4 Fluorometer with the Invitrogen Qubit dsDNA HS Assay and an Agilent Tapestation 4150 with the High Sensitivity D1000 assay kit, respectively. The quantified libraries were pooled equimolarly; 50ng of total library mix was used for Adapter Conversion PCR Amplification using the Universal Library Conversion Kit (App-A), Version: V1.0 (MGI Tech Co., Ltd.), according to the manufacturer’s instructions.
The quantity and quality of the purified adapter conversion PCR (AC-PCR) product were evaluated on a Qubit 4 Fluorometer with the Invitrogen Qubit dsDNA HS Assay and on an Agilent Tapestation 4150 with the High Sensitivity D1000 assay kit, respectively. This was followed by DNA denaturation, Single-Strand Circularisation, Enzymatic Digestion, Enzymatic Digestion Product Cleanup and Quality Control steps on 1 pmol of AC-PCR product, according to the Universal Library Conversion Kit (App-A) User Manual (Version: A3).
Finally, 60 fmol of ssCirDNA were used for DNB preparation and sequencing on a DNBSEQ-G400 platform at the BSRC Alexander Fleming Genomics Facility, using a G400 App-A FCS SE100 High-throughput Sequencing Set (MGI Tech Co., Ltd.), according to the manufacturer’s instructions.
Alignment of the FASTQ files was performed against the mouse genome build mm10 using a custom Bash script.[143] Read counting on the 3′ UTRs and differential expression analysis were conducted using the metaseqR2 bioconductor package.[144] Genes corresponding to the following biotypes were excluded: polymorphic_pseudogene, processed_transcript, pseudogene, IG_V_pseudogene, misc_RNA, IG_C_gene, IG_J_gene, IG_D_gene, IG_LV_gene, TR_V_gene, TR_V_pseudogene, TEC, and processed_pseudogene. Gene counts were normalized with DESEQ[145] through metaseqR2. Genes with more than 10 counts in at least 50% of the samples were kept for further processing. For differential expression analysis, the PANDORA algorithm[146] was used to estimate a meta p-value integrating the results from the DESEQ, DESEQ2,[147] edgeR,[148] limma,[149] NBPSeq,[150] and NOISeq[151] algorithms. All additional parameters were set to default values.
Pathway enrichment analysis was performed for the Gene Ontology Biological process (BP) and Molecular Function (MF) terms through GeneCodis 4.[152] The volcano plots, scatterplots, Venn diagrams, and dot plots were generated using the ggplot2 Bioconductor package.

**Q.** What does the source list for `O=C1NC(=O)C(Cc2ccc(OCCC3CCN(C(=O)OCc4cc(Cl)cc(Cl)c4)CC3)cc2)S1` (centres unmarked) [EL244, 3,5-dichlorobenzyl 4-(2-(4-((2,4-dioxothiazolidin-5-yl)methyl)phenoxy)ethyl)piperidine-1-carboxylate]?
**A.** Evi2a nFC: 0.57; Fam120b log2 nFC: 0.61; Fam120b nFC: 1.53; Fbln5 log2 nFC: -0.64; Fbln5 nFC: 0.64; Fcer1g log2 nFC: -0.80; Fcer1g nFC: 0.57; Flt1 log2 nFC: 0.58; Flt1 nFC: 1.50; Fmod log2 nFC: -1.79; Fmod nFC: 0.29; Fn1 log2 nFC: -1.69; Fn1 nFC: 0.31; Foxm1 log2 nFC: -1.56; Foxm1 nFC: 0.34; Gas7 log2 nFC: -0.82; Gas7 nFC: 0.57; Gatm log2 nFC: -1.79; Gatm nFC: 0.29; Gen1 log2 nFC: -1.63; Gen1 nFC: 0.32; Gins2 log2 nFC: -1.57; Gins2 nFC: 0.34; Gja4 log2 nFC: -0.81; Gja4 nFC: 0.57; Gm9844 log2 nFC: -0.79; Gm9844 nFC: 0.58; Gm22774 log2 nFC: -2.05; Gm22774 nFC: 0.24; Gm23451 log2 nFC: -1.99; Gm23451 nFC: 0.25; Gm49673 log2 nFC: -0.71; Gm49673 nFC: 0.61; Gpc1 log2 nFC: -0.80; Gpc1 nFC: 0.57; Gtse1 log2 nFC: -1.49; Gtse1 nFC: 0.36; Gxylt2 log2 nFC: -1.47; Gxylt2 nFC: 0.36; Gyg log2 nFC: -0.60; Gyg nFC: 0.66; H2-Aa log2 nFC: -0.68; H2-Aa nFC: 0.62; H2-Eb1 log2 nFC: -0.70; H2-Eb1 nFC: 0.62; H2-M2 log2 nFC: -1.86; H2-M2 nFC: 0.27; H2ac11 log2 nFC: -1.45; H2ac11 nFC: 0.37; H2ac12 log2 nFC: -1.44; H2ac12 nFC: 0.37; Hc log2 nFC: 0.67; Hc nFC: 1.59; Herpud1 log2 nFC: 0.64; Herpud1 nFC: 1.56; Hexb log2 nFC: -0.83; Hexb nFC: 0.56; Hhip log2 nFC: -0.72; Hhip nFC: 0.61; Hif1a log2 nFC: -0.69; Hif1a nFC: 0.62; Hist1h2ao log2 nFC: -1.60; Hist1h2ao nFC: 0.33; Hist1h2ap log2 nFC: -2.04; Hist1h2ap nFC: 0.24; Hmgn3 log2 nFC: -0.64; Hmgn3 nFC: 0.64; Ier3 log2 nFC: -0.63; Ier3 nFC: 0.65; Igf1 log2 nFC: -1.60; Igf1 nFC: 0.33; Igfbp4 log2 nFC: -0.58; Igfbp4 nFC: 0.67; Inhba log2 nFC: -2.22; Inhba nFC: 0.21; Iqgap3 log2 nFC: -2.41; Iqgap3 nFC: 0.19; Itgax log2 nFC: -0.80; Itgax nFC: 0.58; Jpt1 log2 nFC: -0.68; Jpt1 nFC: 0.63; Kank3 log2 nFC: 0.61; Kank3 nFC: 1.53; Kif2c log2 nFC: -1.67; Kif2c nFC: 0.32; Kif11 log2 nFC: -1.74; Kif11 nFC: 0.30; Kif14 log2 nFC: -1.56; Kif14 nFC: 0.34; Kif15 log2 nFC: -1.89; Kif15 nFC: 0.27; Kif20a log2 nFC: -2.52; Kif20a nFC: 0.17; Knstrn log2 nFC: -2.52; Knstrn nFC: 0.17; Lama1 log2 nFC: -2.43; Lama1 nFC: 0.19; Lap3 log2 nFC: -0.71; Lap3 nFC: 0.61; Lbh log2 nFC: -0.66; Lbh nFC: 0.63; Lgals3 log2 nFC: -0.80; Lgals3 nFC: 0.57; Lipa log2 nFC: -0.78; Lipa nFC: 0.58; Lmnb2 log2 nFC: -0.70; Lmnb2 nFC: 0.62; Lockd log2 nFC: -1.59; Lockd nFC: 0.33; Lox log2 nFC: -0.69; Lox nFC: 0.62; Loxl1 log2 nFC: -0.69; Loxl1 nFC: 0.62; Lpl log2 nFC: -0.68; Lpl nFC: 0.62; Ltbp2 log2 nFC: -1.44; Ltbp2 nFC: 0.37; Map2 log2 nFC: -0.67; Map2 nFC: 0.63; Mat2a log2 nFC: 0.59; Mat2a nFC: 1.50; Matk log2 nFC: -1.42; Matk nFC: 0.37; Mcm2 log2 nFC: -0.80; Mcm2 nFC: 0.57; Mcm3 log2 nFC: -0.84; Mcm3 nFC: 0.56; Mcm6 log2 nFC: -0.76; Mcm6 nFC: 0.59; Melk log2 nFC: -1.65; Melk nFC: 0.32; Mest log2 nFC: -2.27; Mest nFC: 0.21; Mex3a log2 nFC: -1.69; Mex3a nFC: 0.31; Mgl2 log2 nFC: -0.72; Mgl2 nFC: 0.61; Mif log2 nFC: -0.72; Mif nFC: 0.61; Mir147 log2 nFC: -1.44; Mir147 nFC: 0.37; Mis18bp1 log2 nFC: -1.46; Mis18bp1 nFC: 0.36; Mki67 log2 nFC: -1.62; Mki67 nFC: 0.33; Mmp2 log2 nFC: -0.81; Mmp2 nFC: 0.57; Mmp12 log2 nFC: -2.48; Mmp12 nFC: 0.18; Mmp13 log2 nFC: -1.80; Mmp13 nFC: 0.29; Ms4a7 log2 nFC: -1.49; Ms4a7 nFC: 0.36; Msr1 log2 nFC: -1.44; Msr1 nFC: 0.37; Mybpc2 log2 nFC: -2.17; Mybpc2 nFC: 0.22; Nans log2 nFC: -0.72; Nans nFC: 0.61; Nek6 log2 nFC: -0.68; Nek6 nFC: 0.63; Nipal3 log2 nFC: 0.64; Nipal3 nFC: 1.56; Npr2 log2 nFC: 0.59; Npr2 nFC: 1.50; Ntrk2 log2 nFC: -1.60; Ntrk2 nFC: 0.33; Nup93 log2 nFC: -0.64; Nup93 nFC: 0.64; Nusap1 log2 nFC: -2.02; Nusap1 nFC: 0.25; Nwd2 log2 nFC: -1.51; Nwd2 nFC: 0.35; Oaf log2 nFC: -0.81; Oaf nFC: 0.57; Olfml2b log2 nFC: -0.82; Olfml2b nFC: 0.57; Ooep log2 nFC: -1.51; Ooep nFC: 0.35; Otud7b log2 nFC: 0.61; Otud7b nFC: 1.53; P3h1 log2 nFC: -0.85; P3h1 nFC: 0.55; P4ha3 log2 nFC: -2.15; P4ha3 nFC: 0.23; Pbk log2 nFC: -2.73; Pbk nFC: 0.15; Pclaf log2 nFC: -2.08; Pclaf nFC: 0.24; Pcmtd1 log2 nFC: 0.63; Pcmtd1 nFC: 1.54; Pdgfc log2 nFC: -1.47; Pdgfc nFC: 0.36; Pdzd2 log2 nFC: 0.60; Pdzd2 nFC: 1.52; Phactr2 log2 nFC: 0.63; Phactr2 nFC: 1.54; Pianp log2 nFC: -1.75; Pianp nFC: 0.30; Pla1a log2 nFC: -1.42; Pla1a nFC: 0.37; Pld4 log2 nFC: -0.66; Pld4 nFC: 0.63; Plk1 log2 nFC: -1.89; Plk1 nFC: 0.27; Plk2 log2 nFC: -0.82; Plk2 nFC: 0.57; Plpp3 log2 nFC: 0.65; Plpp3 nFC: 1.57; Plxdc2 log2 nFC: 0.61; Plxdc2 nFC: 1.53; Pmepa1 log2 nFC: -0.76; Pmepa1 nFC: 0.59; Pole2 log2 nFC: -1.50; Pole2 nFC: 0.35; Pole log2 nFC: -1.58; Pole nFC: 0.34; Por log2 nFC: 0.66; Por nFC: 1.58; Ppa1 log2 nFC: -0.71; Ppa1 nFC: 0.61; Ppp1r9a log2 nFC: 0.61; Ppp1r9a nFC: 1.53; Prc1 log2 nFC: -2.31; Prc1 nFC: 0.20; Prcp log2 nFC: -0.69; Prcp nFC: 0.62; Prdx1 log2 nFC: -0.62; Prdx1 nFC: 0.65; Prrx2 log2 nFC: -1.75
